target: human Plasma Kallikrein (Homo sapiens (Human), UniProt P03952); test: In vitro enzyme inhibition of human plasma kallikrein (Pro-Phe-Arg-AMC cleavage); type: biochemical; settings: PFR-AMC substrate, 37° C., read-out: hPK IC50
Procedure: The ability of the compounds disclosed herein to inhibit human plasma kallikrein activity was quantified according to the procedures below.
A 10 mM solution of the test compound was made in DMSO. This solution was serially diluted 1:5 in DMSO to yield 2000, 400, 80, 16, 3.2, 0.64, 0.128, 0.0256 and 0.00512 μM compound test solutions. A control tube containing only DMSO is included. 16 μL of each compound test solution was combined with 384 μL of assay buffer (50 mM Tris-HCl pH 7.5, 150 mM NaCl, 0.01% Triton X-100) to yield a “4× test compound buffer stock”.
Separately, a 40 nM solution of human Plasma Kallikrein (Abcam) and a 93.6 μM solution Pro-Phe-Arg-AMC (Bachem) were made using assay buffer. These solutions are hereby refereed to as 4×hPK and 2×PFR-AMC, respectively.
60 μL of each 4× test compound buffer stock was combined with 60 μL of 4× hPK to yield 120 μL of “2× test compound buffer stock/2×hPK”. 50 μL was removed from this mixture and placed into duplicate wells on a Microfluor 1 Black U-bottom microtiter plate (Thermo Scientific). This plate was incubated for 5 minutes at 37° C. To each well, 50 μL of pre-warmed 2×PFR-AMC was added to start the enzymatic reaction. Cleavage of PFR-AMC was monitored in a Biotek Synergy H4 reader set at 37° C. Readings are taken every 43 seconds for 1 hour. The highest mean velocity over 20 reads (˜15 minutes) is used to calculate the IC50. The IC50 is calculated using the Gen5 (Biotek Instruments).
The ability of the compounds in Table 1 to inhibit human plasma kallikrein activity was determined and the data is shown in Table 3.

Chain of human Plasma Kallikrein (P03952 391-638 limits assumed): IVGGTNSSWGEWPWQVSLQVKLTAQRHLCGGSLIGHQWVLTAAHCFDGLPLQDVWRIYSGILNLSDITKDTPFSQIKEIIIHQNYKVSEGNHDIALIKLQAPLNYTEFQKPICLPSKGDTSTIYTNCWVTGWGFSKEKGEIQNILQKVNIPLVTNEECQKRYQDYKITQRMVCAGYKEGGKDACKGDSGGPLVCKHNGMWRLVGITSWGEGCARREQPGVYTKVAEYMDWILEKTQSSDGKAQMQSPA
Chain of human Plasma Kallikrein (P03952 20-390 partner limits assumed): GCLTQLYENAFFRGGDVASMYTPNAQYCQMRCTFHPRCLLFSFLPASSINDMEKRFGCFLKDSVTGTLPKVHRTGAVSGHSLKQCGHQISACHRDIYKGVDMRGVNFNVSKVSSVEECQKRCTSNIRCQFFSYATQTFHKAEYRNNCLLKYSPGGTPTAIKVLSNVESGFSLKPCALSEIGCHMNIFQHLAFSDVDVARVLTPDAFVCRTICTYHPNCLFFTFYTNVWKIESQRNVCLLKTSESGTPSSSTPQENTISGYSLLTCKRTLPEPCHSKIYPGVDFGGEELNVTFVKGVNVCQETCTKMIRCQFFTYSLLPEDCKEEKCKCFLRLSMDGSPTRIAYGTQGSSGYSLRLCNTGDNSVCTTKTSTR

Structure (SMILES)	IC50
O=C(NCc1n[nH]c2ccc(Cl)cc12)c1cncc(Cc2ccccc2C(F)(F)F)c1 [Example 1, N-((5-chloro-1H-indazol-3-yl)methyl)-5-(2-(trifluoromethyl)benzyl)nicotinamide]	1000 to 10000 nM
N#Cc1ccc(Cc2cncc(C(=O)NCc3n[nH]c4ccc(Cl)cc34)c2)cc1 [Example 2, N-((5-chloro-1H-indazol-3-yl)methyl)-5-(4-cyanobenzyl)nicotinamide]	1000 to 10000 nM
O=C(NCc1n[nH]c2ccc(Cl)cc12)c1cncc(Cc2ccc(C(F)(F)F)cc2)c1 [Example 3, N-((5-chloro-1H-indazol-3-yl)methyl)-5-(4-(trifluoromethyl)benzyl)nicotinamide]	1000 to 10000 nM
Cc1ccc(Cc2cncc(C(=O)NCc3n[nH]c4ccc(Cl)cc34)c2)cc1 [Example 4, N-((5-chloro-1H-indazol-3-yl)methyl)-5-(4-methylbenzyl)nicotinamide]	1000 to 10000 nM
O=C(NCc1n[nH]c2ccc(Cl)cc12)c1cncc(Cc2ccccc2)c1 [Example 5, 5-benzyl-N-((5-chloro-1H-indazol-3-yl)methyl)nicotinamide]	1000 to 10000 nM
NC(=O)c1ccccc1Cc1cncc(C(=O)NCc2n[nH]c3ccc(Cl)cc23)c1 [Example 6, 5-(2-carbamoylbenzyl)-N-((5-chloro-1H-indazol-3-yl)methyl)nicotinamide]	1000 to 10000 nM
N#Cc1cnn(Cc2cncc(C(=O)NCc3cc4c(Cl)c[nH]c4cc3F)c2)c1 [Example 7, N-((3-chloro-6-fluoro-1H-indol-5-yl)methyl)-5-((4-cyano-1H-pyrazol-1-yl)methyl)nicotinamide]	1000 to 10000 nM
NC(=O)c1cnn(Cc2cncc(C(=O)NCc3cc4c(Cl)c[nH]c4cc3F)c2)c1 [Example 8, 5-((4-carbamoyl-1H-pyrazol-1-yl)methyl)-N-((3-chloro-6-fluoro-1H-indol-5-yl)methyl)nicotinamide]	> 10000 nM
CC(=O)N(Cc1ccn(Cc2cc(C(=O)NCc3cc4c(Cl)c[nH]c4cc3F)ccn2)n1)C1CC1 [Example 9, N-((3-chloro-6-fluoro-1H-indol-5-yl)methyl)-2-((3-((N-cyclopropylacetamido)methyl)-1H-pyrazol-1-yl)methyl)isonicotinamide]	> 10000 nM
NC(=O)C(NC(=O)c1cncc(Cc2ccc(Cn3ccccc3=O)cc2)c1)c1n[nH]c2ccc(Cl)cc12 (stereo not shown) [Example 11, N-(2-amino-1-(5-chloro-1H-indazol-3-yl)-2-oxoethyl)-5-(4-((2-oxopyridin-1(2H)-yl)methyl)benzyl)nicotinamide]	1000 to 10000 nM
O=C(NC(C(=O)O)c1n[nH]c2ccc(Cl)cc12)c1cncc(Cc2ccc(Cn3ccccc3=O)cc2)c1 (stereo not shown) [Example 12, 2-(5-chloro-1H-indazol-3-yl)-2-(5-(4-((2-oxopyridin-1(2H)-yl)methyl)benzyl)nicotinamido)acetic acid]	1000 to 10000 nM
NC(=O)c1ccc(CNC(=O)c2cncc(Cc3ccc(Cn4ccccc4=O)cc3)c2)cc1 [Example 14, N-(4-carbamoylbenzyl)-5-(4-((2-oxopyridin-1(2H)-yl)methyl)benzyl)nicotinamide]	1000 to 10000 nM
O=C(NCc1ccc(Cl)cc1)c1cncc(Cc2ccc(Cn3ccccc3=O)cc2)c1 [Example 15, N-(4-chlorobenzyl)-5-(4-((2-oxopyridin-1(2H)-yl)methyl)benzyl)nicotinamide]	1000 to 10000 nM
COc1ccc(CNC(=O)c2cncc(Cc3ccc(Cn4ccccc4=O)cc3)c2)cc1 [Example 16, N-(4-methoxybenzyl)-5-(4-((2-oxopyridin-1(2H)-yl)methyl)benzyl)nicotinamide]	1000 to 10000 nM
O=C(NCc1cc2c(Cl)c[nH]c2cc1F)c1ccc(=O)n(CC23CC(Cn4ccccc4=O)(C2)C3)c1 [Example 17, N-((3-chloro-6-fluoro-1H-indol-5-yl)methyl)-6-oxo-1-((3-((2-oxopyridin-1(2H)-yl)methyl)bicyclo[1.1.1]pentan-1-yl)methyl)-1,6-dihydropyridine-3-carboxamide]	1000 to 10000 nM
O=C(NCc1ccc(Br)c(F)c1)c1ccnc(Cc2ccc(Cn3ccccc3=O)cc2)c1 [Example 18, N-(4-bromo-3-fluorobenzyl)-2-(4-((2-oxopyridin-1(2H)-yl)methyl)benzyl)isonicotinamide]	> 10000 nM
Cc1cc(C#N)ccc1CNC(=O)c1ccnc(Cc2ccc(Cn3ccccc3=O)cc2)c1 [Example 19, N-(4-cyano-2-methylbenzyl)-2-(4-((2-oxopyridin-1(2H)-yl)methyl)benzyl)isonicotinamide]	> 10000 nM
CS(=O)(=O)c1cc(Cc2cc(C(=O)NCc3ccc4c(N)noc4c3)ccn2)ccc1Cn1ccccc1=O [Example 20, N-((3-aminobenzo[d]isoxazol-6-yl)methyl)-2-(3-(methylsulfonyl)-4-((2-oxopyridin-1(2H)-yl)methyl)benzyl)isonicotinamide]	100 to 1000 nM
Cc1cc(N)nc(C)c1CNC(=O)c1ccnc(Cc2ccc3ncc(Cl)cc3c2)n1 [Example 24, N-((6-amino-2,4-dimethylpyridin-3-yl)methyl)-2-((3-chloroquinolin-6-yl)methyl)pyrimidine-4-carboxamide]	≤ 100 nM
CS(=O)(=O)c1cc(Cc2cc(C(=O)NCc3ccc(N)nc3C(F)(F)F)ccn2)ccc1Cn1ccccc1=O [Example 26, N-((6-amino-2-(trifluoromethyl)pyridin-3-yl)methyl)-2-(3-(methylsulfonyl)-4-((2-oxopyridin-1(2H)-yl)methyl)benzyl)isonicotinamide]	1000 to 10000 nM
CS(=O)(=O)c1cc(Cc2cc(C(=O)NCc3cnc(N)cc3C(F)(F)F)ccn2)ccc1Cn1ccccc1=O [Example 27, N-((6-amino-4-(trifluoromethyl)pyridin-3-yl)methyl)-2-(3-(methylsulfonyl)-4-((2-oxopyridin-1(2H)-yl)methyl)benzyl)isonicotinamide]	100 to 1000 nM
CS(=O)(=O)c1cc(Cc2cc(C(=O)NCc3n[nH]c4ccc(Cl)cc34)ccn2)ccc1Cn1ccccc1=O [Example 30, N-((5-chloro-1H-indazol-3-yl)methyl)-2-(3-(methylsulfonyl)-4-((2-oxopyridin-1(2H)-yl)methyl)benzyl)isonicotinamide]	≤ 100 nM

From patent US10981893B2, “Therapeutic inhibitory compounds” (Attune Pharmaceuticals, Inc., priority 2015, dated 2021)
